Measurements published in US10611728B2, “Isoindoline compositions and methods for treating neurodegenerative disease” (priority 2014, dated 2020).
“Also recorded” adds a separate entry of the source.

Tests used:
[1] = tested on: neurons; settings: neuronal cultures treated 24 hours; cited from earlier work
[2] = tested on: caspase-3; settings: cited from earlier work; for caspase-3 activation by ligand: tumor cells and neurons
[3] = tested on: neuronal cultures; experiment: Functional neuronal phenotype in neuronal cultures; assay type: cell-based
Description: Neuronal cultures are treated with various concentrations of sigma compounds for 24 hours and nuclear intensity compared to vehicle is measured.

[4] = Microsomal stability in mouse liver microsomes (MLM); assay type: in vitro ADME; settings: mouse, microsomes
Description: A first pharmacokinetic study was performed in microsomes of mice mouse liver microsomes, MLM) by a commercial contract research organization. The studies were performed according to Obach, R. S et al. (1997) J. Pharmacol. Exp. Ther., 283: 46-58, which is incorporated herein by reference.

| Mouse liver microsomes, MLM t½ [4] | Compound | nuclear morphology / nuclear intensity in neurons [1] | caspase-3 activation by ligand [2] | inhibition of caspase-3 activation in tumor cells ([2]; tumor cells) | neuronal phenotype [3] |
| --- | --- | --- | --- | --- | --- |
| – | COc1cc2c(cc1OC)CN(CCCCNC(=O)c1cc(C)ccc1OC)CC2 [RHM-1, N-[4-(3,4-dihydro-6,7-dimethoxyisoquinolin-2(1H)-yl)butyl]-2-methoxy-5-methylbenzamide] | do not decrease nuclear intensity | do not induce caspase-3 activity | inhibits the activation in tumor cells | – |
| 6 min | CC(C)Oc1cc(CCC(C)(C)N2Cc3cc4c(cc3C2)OCO4)ccc1O [compound 29] | – | – | – | Inactive/IAACon |
| – | COc1ccc(C)cc1NC(=O)OC1C[C@H]2CCC[C@@H](C1)N2CCCCCCN (stereo partly shown) [SV-119] | cause significant abnormal nuclear morphology in neurons | activate caspase-3 in tumor cells and neurons | – | – |
| – | Fc1ccc(-n2cc(CCCCN3CCC4(CC3)OCc3ccccc34)c3ccccc32)cc1 [Siramesine] | cause significant abnormal nuclear morphology in neurons | activate caspase-3 in tumor cells and neurons; also recorded: induces caspase-3 activity | – | – |
| 4 min | CC(C)Oc1cc(CC[C@@H](C)N2Cc3cc4c(cc3C2)OCO4)ccc1O [compound 25] | – | – | – | Inactive/IAACon |

| Compound | Mouse liver microsomes, MLM t½ [4] | nuclear morphology / nuclear intensity in neurons [1] | caspase-3 activation by ligand [2] | inhibition of caspase-3 activation in tumor cells ([2]; tumor cells) | neuronal phenotype [3] |
| --- | --- | --- | --- | --- | --- |
| C[C@H](CCc1ccc(OC(=O)N(C)C)c(OC(F)(F)F)c1)N1Cc2cccc(F)c2C1 [compound 41] | 9 min | – | – | – | Inactive/IAACon |
